Structures can show the parent of a compound that is named as a salt.
Experiments:
[1] = target: T1, glycine transporter-1 (GlyT-1) (Homo sapiens, UniProt P48067); assay: [14C]glycine uptake assay in JAR cells endogenously expressing GlyT-1 (scintillation proximity); assay type: cell-based; settings: JAR cells, [14C]glycine 5 μM, 3 hour incubation; read-out: GlyT-1 IC50
T1 construct: JAR cells (ATCC#HTB-144), which endogenously express GlyT-1; host or cells: JAR human choriocarcinoma cells
T1 sequence (P48067 1-706): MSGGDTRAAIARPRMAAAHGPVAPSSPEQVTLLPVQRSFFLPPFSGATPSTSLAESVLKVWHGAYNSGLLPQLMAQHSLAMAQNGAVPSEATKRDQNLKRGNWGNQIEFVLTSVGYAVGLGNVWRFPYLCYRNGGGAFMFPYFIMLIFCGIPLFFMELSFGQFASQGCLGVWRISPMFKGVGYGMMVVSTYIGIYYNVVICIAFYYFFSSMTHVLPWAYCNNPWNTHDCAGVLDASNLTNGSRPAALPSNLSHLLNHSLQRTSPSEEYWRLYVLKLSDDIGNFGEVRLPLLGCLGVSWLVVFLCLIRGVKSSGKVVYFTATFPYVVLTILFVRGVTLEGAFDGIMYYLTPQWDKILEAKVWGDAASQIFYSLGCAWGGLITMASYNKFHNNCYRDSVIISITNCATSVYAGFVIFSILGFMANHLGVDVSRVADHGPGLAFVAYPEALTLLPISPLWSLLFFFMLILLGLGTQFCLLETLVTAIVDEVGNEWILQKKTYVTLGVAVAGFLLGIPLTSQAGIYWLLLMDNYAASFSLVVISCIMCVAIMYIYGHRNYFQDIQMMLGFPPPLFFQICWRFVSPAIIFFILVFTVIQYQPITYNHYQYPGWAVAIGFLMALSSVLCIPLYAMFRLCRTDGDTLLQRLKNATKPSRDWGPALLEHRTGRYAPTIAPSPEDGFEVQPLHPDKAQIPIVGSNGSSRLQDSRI
How it was run: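 IC50 comes from a four-parameter fit of nine-point, duplicate curves measuring inhibition of 5 μM [14C]glycine uptake, read by scintillation proximity after 3 h at 37 °C. Cells are human JAR, which express GlyT-1 endogenously, given 10 min compound pre-treatment in pH 7.4 buffer with 5 mM alanine and 0.75% DMSO.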

[2] = target: T2, glycine transporter-2 (GlyT-2) (Homo sapiens, UniProt Q9Y345); assay: [14C]glycine uptake assay in HEK-GlyT-2 transfected cells; assay type: cell-based; settings: HEK-GlyT-2 cells
T2 construct: expressed in transfected cells
T2 sequence (Q9Y345 1-797): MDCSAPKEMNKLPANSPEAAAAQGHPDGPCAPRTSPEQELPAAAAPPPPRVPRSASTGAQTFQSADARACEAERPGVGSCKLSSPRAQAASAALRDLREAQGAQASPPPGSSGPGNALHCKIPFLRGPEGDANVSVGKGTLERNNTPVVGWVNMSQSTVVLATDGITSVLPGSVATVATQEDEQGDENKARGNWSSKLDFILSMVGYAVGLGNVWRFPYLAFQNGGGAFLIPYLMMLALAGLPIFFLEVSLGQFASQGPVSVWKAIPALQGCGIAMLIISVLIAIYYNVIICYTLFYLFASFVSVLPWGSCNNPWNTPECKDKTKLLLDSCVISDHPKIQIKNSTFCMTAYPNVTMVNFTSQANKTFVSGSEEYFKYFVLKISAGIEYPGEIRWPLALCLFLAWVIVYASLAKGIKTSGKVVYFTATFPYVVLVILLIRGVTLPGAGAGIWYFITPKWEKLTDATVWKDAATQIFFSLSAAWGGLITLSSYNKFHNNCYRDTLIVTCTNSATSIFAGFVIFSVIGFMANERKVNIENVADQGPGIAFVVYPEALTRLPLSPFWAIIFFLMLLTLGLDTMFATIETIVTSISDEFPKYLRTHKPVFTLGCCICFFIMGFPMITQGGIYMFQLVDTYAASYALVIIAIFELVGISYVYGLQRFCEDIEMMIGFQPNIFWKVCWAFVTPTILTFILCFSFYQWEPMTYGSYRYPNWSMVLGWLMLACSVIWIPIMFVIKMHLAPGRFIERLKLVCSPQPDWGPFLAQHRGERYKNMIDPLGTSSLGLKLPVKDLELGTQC

| IC50 [1] [nM] | IC50 [2] [nM] | SMILES |
| --- | --- | --- |
| 14 | > 75000 | CCCS(=O)(=O)N1CCN(C2(CNC(=O)c3c(F)cccc3OC)CCCCCC2)CC1 [compound 55, 2-Fluoro-6-methoxy-N-((1-(4-(propylsulfonyl)piperazin-1-yl)cycloheptyl)methyl) benzamide Hydrochloride] |
| 6 | 39000 | CCCS(=O)(=O)N1CCN(C2(CNC(=O)c3c(N)cccc3Cl)CCCCCC2)CC1 [compound 56, 2-Amino-6-chloro-N-((1-(4-(propylsulfonyl)piperazin-1-yl)cycloheptyl)methyl) benzamide Hydrochloride] |
| 128 | > 75000 | CCCS(=O)(=O)N1CCN(C2(CNC(=O)c3cccc(C(F)(F)F)c3Cl)CCCCCC2)CC1 [compound 59, 2-Chloro-N-((1-(4-(propylsulfonyl)piperazin-1-yl)cycloheptyl)methyl)-3-(trifluoromethyl) benzamide Hydrochloride] |
| 11 | > 75000 | CCCS(=O)(=O)N1CCN(C2(CNC(=O)c3ccc(Cl)cc3Cl)CCCCCC2)CC1 [compound 60, 2,4-Dichloro-N-((1-(4-(propylsulfonyl)piperazin-1-yl)cycloheptyl)methyl) benzamide Hydrochloride] |
| 105 | 28000 | CCCS(=O)(=O)N1CCN(C2(CNC(=O)c3ccc(C(F)(F)F)cc3)CCCCCC2)CC1 [compound 61, N-((1-(4-(Propylsulfonyl)piperazin-1-yl)cycloheptyl)methyl)-4-(trifluoromethyl) benzamide Hydrochloride] |
| 81 | 3640 | CCCS(=O)(=O)N1CCN(C2(CNC(=O)c3ccc(OC(F)(F)F)cc3)CCCCCC2)CC1 [compound 62, N-((1-(4-(Propylsulfonyl)piperazin-1-yl)cycloheptyl)methyl)-4-(trifluoromethoxy) benzamide Hydrochloride] |
| 99 | > 75000 | CCCS(=O)(=O)N1CCN(C2(CNC(=O)c3ccccc3F)CCCCCC2)CC1 [compound 63, 2-Fluoro-N-((1-(4-(propylsulfonyl)piperazin-1-yl)cycloheptyl)methyl) benzamide Hydrochloride] |
| 11 | > 75000 | CCCS(=O)(=O)N1CCN(C2(CNC(=O)c3c(Cl)cccc3Cl)CCCCCC2)CC1 [compound 64, 2,6-Dichloro-N-((1-(4-(propylsulfonyl)piperazin-1-yl)cycloheptyl)methyl) benzamide Hydrochloride] |
| 204 | > 75000 | CCCS(=O)(=O)N1CCN(C2(CNC(=O)c3cccc(OC)c3Cl)CCCCCC2)CC1 [compound 65, 2-Chloro-3-methoxy-N-((1-(4-(propylsulfonyl)piperazin-1-yl)cycloheptyl)methyl) benzamide Hydrochloride] |
| 29 | > 45000 | CCCS(=O)(=O)N1CCN(C2(CNC(=O)c3c(F)cccc3F)CCCCCC2)CC1 [compound 66, 2,6-Difluoro-N-((1-(4-(propylsulfonyl)piperazin-1-yl)cycloheptyl)methyl) benzamide Hydrochloride] |

Further lines, the molecule ahead of its results:

| SMILES | IC50 [1] [nM] | IC50 [2] [nM] |
| --- | --- | --- |
| CCCS(=O)(=O)N1CCN(C2(CNC(=O)c3ccc(F)cc3F)CCCCC2)CC1 [compound 39, 2,4-Difluoro-N-((1-(4-(propylsulfonyl)piperazin-1-yl)cyclohexyl)methyl) benzamide Hydrochloride] | 132 | ≥ 75000 |
| CCCS(=O)(=O)N1CCN(C2(CNC(=O)c3c(N)cccc3F)CCCCC2)CC1 [compound 41, 2-Amino-6-fluoro-N-((1-(4-(propylsulfonyl)piperazin-1-yl)cyclohexyl)methyl) benzamide Hydrochloride] | 71 | > 75000 |
| CCCS(=O)(=O)N1CCN(C2(CNC(=O)c3ccccc3C)CCCCC2)CC1 [compound 42, 2-Methyl-N-((1-(4-(propylsulfonyl)piperazin-1-yl)cyclohexyl)methyl) benzamide Hydrochloride] | 118 | > 35000 |
| CCCS(=O)(=O)N1CCN(C2(CNC(=O)c3c(F)cccc3OC)CCCCC2)CC1 [compound 44, 2-Fluoro-6-methoxy-N-((1-(4-(propyl-sulfonyl)piperazin-1-yl)cyclohexyl)methyl) benzamide Hydrochloride] | 17 | > 75000 |
| CCCS(=O)(=O)N1CCN(C2(CNC(=O)c3ccc(Cl)cc3OC)CCCCC2)CC1 [compound 45, 4-Chloro-2-methoxy-N-((1-(4-(propyl-sulfonyl)piperazin-1-yl)cyclohexyl)methyl) benzamide Hydrochloride] | 322 | > 75000 |
| CCCS(=O)(=O)N1CCN(C2(CNC(=O)c3ccc(F)cc3OC)CCCCC2)CC1 [compound 46, 4-Fluoro-2-methoxy-N-((1-(4-(propyl-sulfonyl)piperazin-1-yl)cyclohexyl)methyl) benzamide Hydrochloride] | 357 | > 75000 |
| CCCS(=O)(=O)N1CCN(C2(CNC(=O)c3c(C)cccc3C)CCCCC2)CC1 [compound 47, 2,6-Dimethyl-N-((1-(4-(propylsulfonyl)piperazin-1-yl)cyclohexyl)methyl) benzamide Hydrochloride] | 12 | > 75000 |
| CCCS(=O)(=O)N1CCN(C2(CNC(=O)c3c(F)cc(F)cc3F)CCCCC2)CC1 [compound 48, 2,4,6-Trifluoro-N-((1-(4-(propylsulfonyl)piperazin-1-yl)cyclohexyl)methyl) benzamide Hydrochloride] | 16 | > 75000 |
| CCCS(=O)(=O)N1CCN(C2(CNC(=O)c3c(C)cccc3F)CCCCC2)CC1 [compound 49, 2-Fluoro-6-methyl-N-((1-(4-(propylsulfonyl)piperazin-1-yl)cyclohexyl)methyl) benzamide Hydrochloride] | 16 | > 75000 |
| CCCS(=O)(=O)N1CCN(C2(CNC(=O)c3ccccc3C(F)(F)F)CCCCC2)CC1 [compound 50, N-((1-(4-(Propylsulfonyl)piperazin-1-yl)cyclohexyl)methyl)-2-(trifluoromethyl)benzamide Hydrochloride] | 48 | > 75000 |
| CCCS(=O)(=O)N1CCN(C2(CNC(=O)c3c(F)cc(Cl)cc3F)CCCCCC2)CC1 [compound 51, 4-Chloro-2,6-difluoro-N-((1-(4-propylsulfonyl)piperazin-1-yl)cycloheptyl)methyl) benzamide Hydrochloride] | 13 | > 75000 |
| CCCS(=O)(=O)N1CCN(C2(CNC(=O)c3ccc(F)cc3OC)CCCCCC2)CC1 [compound 52, 4-Fluoro-2-methoxy-N-((1-(4-(propylsulfonyl)piperazin-1-yl)cycloheptyl)methyl) benzamide Hydrochloride] | 404 | > 75000 |
| CCCS(=O)(=O)N1CCN(C2(CNC(=O)c3ccc(Cl)cc3OC)CCCCCC2)CC1 [compound 53, 4-Chloro-2-methoxy-N-((1-(4-(propylsulfonyl)piperazin-1-yl)cycloheptyl)methyl) benzamide Hydrochloride] | 373 | > 75000 |
| CCCS(=O)(=O)N1CCN(C2(CNC(=O)c3c(F)ccc(F)c3Cl)CCCCCC2)CC1 [compound 54, 2-Chloro-3,6-difluoro-N-((1-(4-(propylsulfonyl)piperazin-1-yl)cycloheptyl)methyl) benzamide Hydrochloride] | 20 | > 75000 |
